Assay results as given in patent EP3057951B1, “METHYLENE LINKED QUINOLINYL MODULATORS OF ROR-GAMMA-T” (Janssen Pharmaceutica NV, priority 2013, dated 2015).
Where two headings read alike, the source gives them in different places.

Experiments:
[1] = target: T1, wild type human RORγt ligand binding domain (RORyt LBD) (Homo sapiens, UniProt P51449); experiment: RORγt ThermoFluor assay (thermal shift, binding affinity KD)
T1 construct: His-tag (N); TurboTEV protease cleavage site (ENLYFQG) (N); made in house; host or cells: E. coli (pHIS1, modified pET vector)
T1 sequence (P51449 258-518): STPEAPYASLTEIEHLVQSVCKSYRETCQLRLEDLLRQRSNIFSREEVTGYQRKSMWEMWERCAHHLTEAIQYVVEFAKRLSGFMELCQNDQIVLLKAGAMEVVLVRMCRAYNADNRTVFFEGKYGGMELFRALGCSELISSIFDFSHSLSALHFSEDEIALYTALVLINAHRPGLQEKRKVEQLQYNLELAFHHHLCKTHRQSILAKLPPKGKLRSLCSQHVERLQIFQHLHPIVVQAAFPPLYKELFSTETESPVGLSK

[2] = target: T2, wild type human RORγt LBD (Homo sapiens, UniProt P51449); experiment: RORγt (LBD) Reporter Assay (GAL4-luciferase, HEK293T cells); format: cell-based; conditions: for RORγt (LBD) Reporter Assay, % inhibition @ 6 µM: 6 µM compound concentration; for inhibition at 6 µM: HEK-293T, read-out: RORγt (LBD) Reporter Assay, % inhibition @ 6 µM, 6 µM compound concentration
T2 construct: expressed in transfected cells; host or cells: HEK293T
T2 sequence (P51449 258-518): T1 sequence (P51449 258-518)

[3] = HEK293T cells, value after the comma with ∼, > or < could not be included in the average

**Q.** For `CCN(CC)c1nc2ccc(C(O)(c3ccc(Cl)cc3)c3cncn3C)cc2c(C#N)c1Cc1ccc(-n2cccn2)cc1` (single isomer, unassigned) [Example 154c, 3-(4-(1H-pyrazol-1-yl)benzyl)-6-((4-chlorophenyl)(hydroxy)(1-methyl-1H-imidazol-5-yl)methyl)-2-(diethylamino)quinoline4-carbonitrile], which Kd [1] is on record?
**A.** > 56000 nM

**Q.** And the IC50 ([2]; HEK293T cells)?
**A.** 1000 nM

**Q.** What does the source list for `CC(=O)N1CCC(C(O)(c2ccccc2)c2ccc3nc(Cl)c(Cc4cncnc4)c(OC(F)F)c3c2)CC1` (single isomer, unassigned) [Example 73c, 1-(4-((2-Chloro-4-(difluoromethoxy)-3-(pyrimidin-5-ylmethyl)quinolin-6-yl)(hydroxy)(phenyl)methyl)piperidin-1-yl)ethanone]?
**A.** Kd [1]: 480 nM; RORγt (LBD) Reporter Assay, % inhibition @ 6 µM [2]: 21%; IC50 [2, 3]: > 6000 nM

**Q.** With `CON(C)c1nc2ccc(C(O)(c3ccc(C(F)(F)F)nc3)c3cncn3C)cc2c(N(C)OC)c1Cc1ccc(-n2cccn2)cc1` (centres unmarked) [Example 129, {2,4-Bis[methoxy(methyl)amino]-3-[4-(1H-pyrazol-1-yl)benzyl]quinolin-6-yl}(1-methyl-1H-imidazol-5-yl)[6-(trifluoromethyl)pyridin-3-yl]methanol] as the compound, how does the Kd [1] read?
**A.** 1700 nM

**Q.** And the IC50 ([2]; HEK293T cells)?
**A.** 1500 nM

**Q.** And the inhibition at 6 µM ([2]; HEK293T cells)?
**A.** 110%

**Q.** For `COc1nc2ccc(C(O)(c3cnnn3C)c3cnc(C)n3C)cc2c(Cl)c1Cc1ccc(C(F)(F)F)nc1` (single isomer, unassigned) [Example 43b, (4-Chloro-2-methoxy-3-((6-(trifluoromethyl)pyridin-3-yl)methyl)quinolin-6-yl)(1,2-dimethyl-1H-imidazol-5-yl)(1-methyl-1H-1,2,3-triazol-5-yl)methanol], which Kd [1] is on record?
**A.** 0.49 nM

**Q.** What about the IC50 [2, 3] of the same compound?
**A.** 10 nM

**Q.** And the inhibition at 6 µM [2]?
**A.** 98%

**Q.** With `COc1nc2ccc(C(O)(c3cnnn3C)c3cnc(C)n3C)cc2c(Cl)c1Cc1ccc(C(F)(F)F)nc1` (single isomer, unassigned) [Example 43c, (4-Chloro-2-methoxy-3-((6-(trifluoromethyl)pyridin-3-yl)methyl)quinolin-6-yl)(1,2-dimethyl-1H-imidazol-5-yl)(1-methyl-1H-1,2,3-triazol-5-yl)methanol] as the compound, how does the Kd [1] read?
**A.** 0.96 nM

**Q.** And the “RORγt (LBD) Reporter Assay, % inhibition @ 6 µM” value (from here on “RORγt … % inhibition @ 6 µM”) [2]?
**A.** 99%

**Q.** And the IC50 [2, 3]?
**A.** 5.3 nM

**Q.** What does the source list for `Cc1cc(C(O)(c2ccc(Cl)cc2)c2cncn2C)cc2c(Cl)c(Cc3ccc(-n4cccn4)cc3)c(N3CCC3)nc12` (centres unmarked) [Example 136a]?
**A.** Kd [1]: 150 nM; IC50 ([2]; HEK293T cells): 140 nM; inhibition at 6 µM ([2]; HEK293T cells): 94%

**Q.** What does the source list for `Cn1cc(-c2nc3ccc(C(O)(c4ccc(C(F)(F)F)nc4)c4cncn4C)cc3c(Cl)c2Cc2ccccc2)cn1` (single isomer, unassigned) [Example 111c, (3-Benzyl-4-chloro-2-(1-methyl-1H-pyrazol-4-yl)quinolin-6-yl)(1-methyl-1H-imidazol-5-yl)(6-(trifluoromethyl)pyridin-3-yl)methanol]?
**A.** Kd [1]: 22000 nM; RORγt (LBD) Reporter Assay, % inhibition @ 6 µM [2]: 92%; IC50 [2, 3]: ~5000 nM

**Q.** How did the Kd [1] turn out when `CC(=O)N1CCC(C(O)(c2ccc(C(F)(F)F)nc2)c2cc(C)c3nc(C#N)c(Cc4ccc(-n5cccn5)cc4)c(C#N)c3c2)CC1` (single isomer, unassigned) [Example 79b, 3-(4-(1H-Pyrazol-1-yl)benzyl)-6-((1-acetylpiperidin-4-yl)(hydroxy)(6(trifluoromethyl)pyridin-3-yl)methyl)-8-methylquinoline-2,4-dicarbonitrile] was run?
**A.** 580 nM

**Q.** And the IC50 [2, 3]?
**A.** 760 nM

**Q.** And the inhibition at 6 µM [2]?
**A.** 92%

**Q.** `Cn1cncc1C(O)(c1ccc(C(F)(F)F)nc1)c1ccc2nc(N3CC(F)C3)c(Cc3ccc(-n4cccn4)cc3)c(Cl)c2c1` (single isomer, unassigned) [Example 147b, {4-Chloro-2-(3-fluoroazetidin-1-yl)-3-[4-(1H-pyrazol-1-yl)benzyl]quinolin-6-yl}(1-methyl-1H-imidazol-5-yl)[6-(trifluoromethyl)pyridin-3-yl]methanol] was tested. Which Kd [1] did it give?
**A.** 60 nM

**Q.** What about the IC50 ([2]; HEK293T cells) of the same compound?
**A.** 210 nM

**Q.** And the inhibition at 6 µM ([2]; HEK293T cells)?
**A.** 99%

**Q.** What does the source list for `COc1nc2ccc(C(O)(c3cncn3C)c3cnnn3C)cc2c(Cl)c1Cc1ccc(C(F)(F)F)cc1` (single isomer, unassigned) [Example 89b, (4-Chloro-2-methoxy-3-(4-(trifluoromethyl)benzyl)quinolin-6-yl)(1-methyl-1H-1,2,3-triazol-5-yl)(1-methyl-1H-imidazol-5-yl)methanol]?
**A.** Kd [1]: 1.2 nM; IC50 [2, 3]: < 2 nM; inhibition at 6 µM [2]: 97%

**Q.** For `CC(=O)N1CCC(C(O)(c2cc(C)c3nc(C#N)c(Cc4ccc(-n5cccn5)cc4)c(C#N)c3c2)c2cncn2C)CC1` (single isomer, unassigned) [Example 81b, 3-(4-(1H-Pyrazol-1-yl)benzyl)-6-((1-acetylpiperidin-4-yl)(hydroxy)(1-methyl-1H-imidazol-5-yl)methyl)-8-methylquinoline-2,4-dicarbonitrile], which Kd [1] is on record?
**A.** 36 nM

**Q.** And the IC50 [2, 3]?
**A.** 310 nM

**Q.** And the inhibition at 6 µM [2]?
**A.** 97%

**Q.** Which results are given for `Cn1cncc1C(O)(c1ccc(C(F)(F)F)nc1)c1ccc2nc(N3CCCC3)c(Cc3ccc(-n4cccn4)cc3)c(Cl)c2c1` (single isomer, unassigned) [Example 145c, {4-Chloro-3-[4-(1H-pyrazol-1-yl)benzyl]-2-pyrrolidin-1-ylquinolin-6-yl}(1-methyl-1H-imidazol-5-yl)[6-(trifluoromethyl)pyridin-3-yl]methanol]?
**A.** Kd [1]: 810 nM; RORγt (LBD) Reporter Assay, % inhibition @ 6 µM ([2]; HEK293T cells): 95%; IC50 ([2]; HEK293T cells): 780 nM

**Q.** How did the Kd [1] turn out when `Cn1cncc1C(O)(c1ccc(Cl)cc1)c1ccc2nc(N3CCC3)c(Cc3ccc(-n4cccn4)cc3)c(Cl)c2c1` (single isomer, unassigned) [Example 138c, {2-Azetidin-1-yl-4-chloro-3-[4-(1H-pyrazol-1-yl)benzyl]quinolin-6-yl}(4-chlorophenyl)(1-methyl-1H-imidazol-5-yl)methanol] was run?
**A.** 32 nM

**Q.** What about the “RORγt … % inhibition @ 6 µM” value ([2]; HEK293T cells) of the same compound?
**A.** 96%

**Q.** And the IC50 ([2]; HEK293T cells)?
**A.** 75 nM

**Q.** What does the source list for `Cn1cncc1C(O)(c1ccc(C(F)(F)F)nc1)c1ccc2nc(N3CC(F)(F)C3)c(Cc3ccc(-n4cccn4)cc3)c(Cl)c2c1` (single isomer, unassigned) [Example 135b, {4-Chloro-2-(3,3-difluoroazetidin-1-yl)-3-[4-(1H-pyrazol-1-yl)benzyl]quinolin-6-yl}(1-methyl-1H-imidazol-5-yl)[6-(trifluoromethyl)pyridin-3-yl]methanol]?
**A.** Kd [1]: 160 nM; IC50 ([2]; HEK293T cells): 260 nM; inhibition at 6 µM ([2]; HEK293T cells): 99%

**Q.** Which results are given for `COc1nc2ccc(C(O)(c3ccc(C)nc3C)c3cnnn3C)cc2c(Cl)c1Cc1ccc(N(C)C)cc1` (single isomer, unassigned) [Example 24b, (4-Chloro-3-(4-(dimethylamino)benzyl)-2-methoxyquinolin-6-yl)(2,6-dimethylpyridin-3-yl)(1-methyl-1H-1,2,3-triazol-5-yl)methanol]?
**A.** Kd [1]: 130 nM; IC50 [2, 3]: ~220 nM; inhibition at 6 µM [2]: 92%

**Q.** With `COc1nc2ccc(C(O)(c3ccc(C)nc3C)C3CN(C(C)=O)C3)cc2c(Cl)c1Cc1ccc(C(F)(F)F)cc1` (single isomer, unassigned) [Example 87b, 1-(3-((4-Chloro-2-methoxy-3-(4-(trifluoromethyl)benzyl)quinolin-6-yl)(2,6-dimethylpyridin-3-yl)(hydroxy)methyl)azetidin-1-yl)ethanone] as the compound, how does the Kd [1] read?
**A.** 0.73 nM

**Q.** What about the IC50 [2, 3] of the same compound?
**A.** 13 nM

**Q.** What about the inhibition at 6 µM [2] of the same compound?
**A.** 100%

**Q.** Which results are given for `Cn1cncc1C(O)(c1ccc(C(F)(F)F)nc1)c1ccc2nc(C(F)(F)F)c(Cc3ccccc3)c(C#N)c2c1` (single isomer, unassigned) [Example 108b, 3-Benzyl-6-(hydroxy(1-methyl-1H-imidazol-5-yl)(6-(trifluoromethyl)pyridin-3-yl)methyl)-2-(trifluoromethyl)quinoline-4-carbonitrile]?
**A.** Kd [1]: 1.2 nM; RORγt (LBD) Reporter Assay, % inhibition @ 6 µM [2]: 55%; IC50 [2, 3]: 1100 nM

**Q.** Which results are given for `CC(=O)N1CCC(C(O)(c2ccccc2)c2ccc3nc(Cl)c(Cc4cncnc4)c(OC(F)F)c3c2)CC1` (racemic) [Example 73a, 1-(4-((2-Chloro-4-(difluoromethoxy)-3-(pyrimidin-5-ylmethyl)quinolin-6-yl)(hydroxy)(phenyl)methyl)piperidin-1-yl)ethanone]?
**A.** Kd [1]: 590 nM; IC50 [2, 3]: > 6000 nM; inhibition at 6 µM [2]: 45%

**Q.** With `COc1nc2ccc(C(O)(c3ccc(C)nc3C)c3cnnn3C)cc2c(C#N)c1Cc1ccc(C(F)(F)F)nc1` (single isomer, unassigned) [Example 41c, 6-((2,6-Dimethylpyridin-3-yl)(hydroxy)(1-methyl-1H-1,2,3-triazol-5-yl)methyl)-2-methoxy-3-((6-(trifluoromethyl)pyridin-3-yl)methyl)quinoline-4-carbonitrile] as the compound, how does the Kd [1] read?
**A.** 6.4 nM

**Q.** And the “RORγt … % inhibition @ 6 µM” value [2]?
**A.** 99%

**Q.** What about the IC50 [2, 3] of the same compound?
**A.** 5.9 nM

**Q.** `COc1nc2ccc(C(O)(c3ccc(C)nc3C)c3cnnn3C)cc2c(Cl)c1Cc1ccc(-n2cccn2)cc1` (single isomer, unassigned) [Example 17b, (3-(4-(1H-Pyrazol-1-yl)benzyl)-4-chloro-2-methoxyquinolin-6-yl)(2,6-dimethylpyridin-3-yl)(1-methyl-1H-1,2,3-triazol-5-yl)methanol] was tested. Which Kd [1] did it give?
**A.** 200 nM

**Q.** What about the IC50 [2, 3] of the same compound?
**A.** 660 nM

**Q.** What about the inhibition at 6 µM [2] of the same compound?
**A.** 97%
